Test results as given in the CombiSolv-Exp solvation set (Vermeire and Green 2021).

Assay: solvent given as SMILES

C=CCCCCCC
Details	solvation free energy, 298 K [kcal/mol]
in CC#N	-3.98
in CCC#N	-4.66
in CCCC#N	-4.42
in CCCCC(CC)COC(=O)CCCCC(=O)OCC(CC)CCCC	-4.72
in CCCCCCC	-5.17
in CCCCCCCCC=CCCCCCCCC(=O)OCC(COC(=O)CCCCCCCC=CCCCCCCCC)OC(=O)CCCCCCCC=CCCCCCCCC	-4.65
in CCCCCCCCO	-4.58
in CCCCOC(=O)c1ccccc1C(=O)OCCCC	-4.62
in CCN1CCCC1=O	-4.36
in CCN(CC)C(C)=O	-4.5
in CCNC(C)=O	-4.23
in CCNC=O	-3.97
in CCOC(=O)c1ccccc1C(=O)OCC	-4.11
in CN1CCCC1=O	-4.02
in CN(C)C=O	-3.89
in CNC=O	-3.6
in CS(C)=O	-3.04
in N#CCCCCC#N	-3.31
in NC=O	-1.58
in NCCO	-2.07
in Nc1ccccc1	-3.82
in O	1.93
in O=C1CCCO1	-3.53
in O=CN1CCOCC1	-3.4
in OCCO	-1.81
in OCCOCCO	-2.55
in OCCOCCOCCO	-2.78

OCc1ccccc1
Details	solvation free energy, 298 K [kcal/mol]
in CCCCCCCCCCCCCCCC	-5.74
in N#Cc1ccccc1	-8
in O	-6.79

FCC(F)(F)F
Details	solvation free energy, 298 K [kcal/mol]
in CCCCCCCC(=O)OCC(COC(=O)CCCCCCC)OC(=O)CCCCCCC	-1.21
in CCCCCCCCC	-0.76
in CCCCCCCCO	-0.89
in CN1CCCC1=O	-1.96
in CN(C)C=O	-2.21
in O	0.56

CCC1CCCCC1
Details	solvation free energy, 298 K [kcal/mol]
in Brc1ccccc1	-5.2
in C1CCCCC1	-5.59
in C1CCOC1	-5.38
in C1COCCO1	-4.67
in C=CCCCC	-5.39
in C=CCCCCCC	-5.34
in C=CCCCCCCCC	-5.3
in CC1COC(=O)O1	-3.41
in CC#N	-3.87
in CC(=O)N(C)C	-4.21
in CC(=O)O	-4.16
in CC(=O)c1ccccc1	-4.54
in CC(C)=O	-4.54
in CC(C)CC(C)(C)C	-5.28
in CC(C)CCCC(C)CCCC(C)CCCCC(C)CCCC(C)CCCC(C)C	-4.99
in CC(C)CCO	-4.74
in CC(C)O	-4.53
in CC(C)OC(C)C	-5.26
in CCBr	-5.53
in CCC#N	-4.51
in CCC(C)=O	-4.81
in CCCC#N	-4.46
in CCCC(=O)OCC	-5.04
in CCCC(C)=O	-4.91
in CCCCC	-5.41
in CCCCCC	-5.42
in CCCCCC(C)=O	-4.96
in CCCCCCC	-5.39
in CCCCCCCC	-5.38
in CCCCCCCCC	-5.31
in CCCCCCCCC=CCCCCCCCC(=O)OCC(COC(=O)CCCCCCCC=CCCCCCCCC)OC(=O)CCCCCCCC=CCCCCCCCC	-5.07
in CCCCCCCCCC	-5.28
in CCCCCCCCCCCC	-5.21
in CCCCCCCCCCCCCCCC	-5.15
in CCCCCCCCO	-4.84
in CCCCCCOC(C)=O	-5.05
in CCCCO	-4.69
in CCCCOC(=O)c1ccccc1C(=O)OCCCC	-4.8
in CCCCOC(C)=O	-4.99
in CCCCOCCCC	-5.24
in CCCO	-4.55
in CCN(CC)CC	-5.43
in CCO	-4.47
in CCOC(=O)c1ccccc1C(=O)OCC	-4.24
in CCOC(C)=O	-4.83
in CCOCC	-5.33
in CCOCCOCCOCC	-4.82
in CCOc1ccccc1	-4.96
in CN1CCCC1=O	-4.2
in CN(C)C=O	-4.06
in CN(C)P(=O)(N(C)C)N(C)C	-4.49
in CNC=O	-3.73
in CO	-4.05
in COC(C)=O	-4.62
in COCCO	-4.06
in COc1ccccc1	-4.91
in CS(C)=O	-3.28
in Cc1ccc(C)cc1	-5.35
in Cc1ccccc1	-5.37
in Cc1ccccn1	-5
in ClC(Cl)(Cl)Cl	-5.58
in ClC(Cl)Cl	-5.46
in ClCCCl	-4.91
in ClCCl	-5.2
in Clc1ccccc1	-5.37
in FC(F)(F)C(F)(F)C(F)(F)C(F)(F)C(F)(F)C(F)(F)C(F)(F)C(F)(F)F	-3.5
in FC(F)(F)C(F)(F)C(F)(F)C(F)(F)C(F)(F)C(F)(F)F	-3.53
in Fc1ccccc1	-5.22
in ICI	-3.85
in N#Cc1ccccc1	-4.57
in NC=O	-1.81
in Nc1ccccc1	-3.93
in O	2.14
in O=C1CCCCC1	-4.85
in O=C1CCCO1	-3.62
in O=CN1CCOCC1	-3.52
in O=Cc1ccco1	-3.95
in OCCCCCO	-3.47
in OCCCCO	-3.26
in OCCCO	-2.9
in OCCO	-2.11
in OCCOCCO	-2.81
in OCCOCCOCCO	-3.01
in OCc1ccccc1	-4.14
in S=C=S	-5.65
in c1ccccc1	-5.35
in c1ccncc1	-4.73

O=C=S
Details	solvation free energy, 298 K [kcal/mol]
in CC1COC(=O)O1	-1.15
in CN1CCCC1=O	-1.41
in COCCOCCOCCOCCOC	-1.41
in O	0.41

CCCC(=O)CC(=O)CC
Details	solvation free energy, 298 K [kcal/mol]
in O	-4.35

CCCCCCO[N+](=O)[O-]
Details	solvation free energy, 298 K [kcal/mol]
in O	-1.66

CC(C)=CCCC(C)CCCC(C)CCCC(C)C (stereo not drawn)
Details	solvation free energy, 298 K [kcal/mol]
in O	3.72

O=Cc1ccco1
Details	solvation free energy, 298 K [kcal/mol]
in CCCCCCCC	-4.27
in CCCCCCCCCC	-4.51
in CCOC(C)=O	-6.3
in O	-5.28

CCOc1ccc(NC(C)=O)cc1
Details	solvation free energy, 298 K [kcal/mol]
in C1CCOC1	-13.7
in CCCCCCCCO	-13.1
in CCCCCO	-13
in CCCCO	-13.2
in CCCO	-13.2
in CCO	-13.3
in CCOC(C)=O	-12.8
in CO	-13.6
in O	-10.9

Cc1cc2ccccc2cc1C
Details	solvation free energy, 298 K [kcal/mol]
in CCCCCCCCC=CCCCCCCCC(=O)OCC(COC(=O)CCCCCCCC=CCCCCCCCC)OC(=O)CCCCCCCC=CCCCCCCCC	-8.95
in O	-2.72

CC(=O)CCC(C)C
Details	solvation free energy, 298 K [kcal/mol]
in NC=O	-4.52

[H][H]
Details	solvation free energy, 298 K [kcal/mol]
in CCCCCCCCO	1.76
in O	2.35
